US20100197587A1, “USE OF A PEPTIDE AS A THERAPEUTIC AGENT” (priority 2007, published 2010)
No end group written: not given here.

Experiments:
HCMV strain AD169 = assay: HCMV plaque formation assay in MRC-5 cells; settings: for inhibition of HCMV plaque formation as compared to the virus control experiment: 10 micrograms per ml, 7-10 days
[1] = tested on: hepatitis B virus (HBV) ayw strain; assay: HBV assay in HepG2-2.2.15 cells (secreted HBV DNA by TaqMan PCR); format: cell-based; settings: 10 micrograms per ml; HepG2-2.2.15, six days, HBV DNA in supernatant
spleen cells = assay: Th1/Th2 cytokine profiling assay (Ovalbumin-restimulated spleen cells); settings: 10 micrograms per ml; Ovalbumin restimulation, 72 hours, supernatant
Excerpt: The Balb/c mice (originated in 1923, it is a popular strain and is used in many different research disciplines. Also classified as an inbred from the production of 20 or more successive brother-sister matings, the Balb/c mouse is albino and small in size) were immunized on Days 1, 15, and 29 with Ovalbumin (Ovalbumin is the main protein found in egg white, commonly used to stimulate an immunological reaction in test animals) in PBS (5 micrograms/injection). On day 50, spleens of the mice were harvested (3 weeks after last boost with Ovalbumin). […] Thereafter, additional Ovalbumin was added to the cells at 10 micrograms/ml for in vitro restimulation of the cells. 72 hours later, cell supernatants were harvested and assayed using the Becton Dickinson Mouse Th1/Th2 Cytokine CBA Kit. This kit can be used to measure Interleukin-2 (IL-2), Interleukin-4 (IL-4), Interleukin-5 (IL-5), Interferon-γ (IFN-γ), and Tumor Necrosis Factor-α (TNF-α) protein levels in a single sample.

[2] = tested on: RAW 264.7 (Mouse leukaemic monocyte macrophage cell line) cells; assay: Phagocytosis assay (Fluorescein-labeled Escherichia coli, flow cytometry); format: cell-based; settings: 10 micrograms per ml; RAW 264.7, Fluorescein-labeled E. coli
HIV-1IIIB = assay: HIV-1 antiviral assay in CEM-SS cells (MTS readout); settings: positive controls

His-Ala-Asp-Gly-Ser-Phe-Ser-Asp-Glu-Met-Asn-Thr-Ile-Leu-Asp-Asn-Leu-Ala-Ala-Arg-Asp-Phe-Ile-Asn-Trp-Leu-Ile-Gln-Thr-Lys-Ile-Thr-Asp-OH [Peptide 2]
inhibition of HCMV plaque formation as compared to the virus control experiment (HCMV strain AD169): 18.8%
inhibition of HBV replication as compared to the virus control infection [1]: 59.2%
IFNγ spleen cells; TH1 response (% of control) (spleen cells): 132.7 % of control
IL-2 spleen cells (% of control) (spleen cells): 183.3 % of control
IL-4 spleen cells; TH2 response (% of control) (spleen cells): 104.4 % of control
IL-5 spleen cells; TH2 response (% of control) (spleen cells): 108.4 % of control
TNF-a spleen cells; TH1 response (% of control) (spleen cells): 143.7 % of control
inhibitory effects on the phagocytic activity of murine macrophages [2]: no inhibitory effects

Nc1nc(O)c2ncn(COC(CO)CO)c2n1 [Ganciclovir, reference compound]
antiviral activity of positive control compound (HCMV) (HCMV strain AD169; positive control, HCMV AD169): expected levels of antiviral activity

CC(C)(C)NC(=O)[C@@H]1CN(Cc2cccnc2)CCN1C[C@@H](O)C[C@@H](Cc1ccccc1)C(=O)N[C@H]1c2ccccc2C[C@H]1O [indinavir]
antiviral activity of positive control compounds (HIV-1) (HIV-1IIIB): expected levels of antiviral activity

His-Ala-Asp-Gly-Ser-Phe-Ser-Asp-Glu-Met-Asn-Thr-Ile-Leu-Asp-Asn-Leu-Ala-Ala-Arg-Asp-Phe-Ile-Asn-Trp-Leu-Ile-Gln-Thr-Lys-Ile-Thr-Asp-Arg-OH (HADGSFSDEMNTILDNLAARDFINWLIQTKITDR-OH) [Peptide 1]
inhibition of HCMV plaque formation as compared to the virus control experiment (HCMV strain AD169): did not inhibit
inhibition of HBV replication as compared to the virus control infection [1]: 59.7%
IFNγ spleen cells; TH1 response (% of control) (spleen cells): 132.7 % of control
IL-2 spleen cells (% of control) (spleen cells): 0.0 % of control
IL-4 spleen cells; TH2 response (% of control) (spleen cells): 0.0 % of control
IL-5 spleen cells; TH2 response (% of control) (spleen cells): 48.2 % of control
TNF-a spleen cells; TH1 response (% of control) (spleen cells): 102.2 % of control
increase of the phagocytic activity of murine macrophages [2]: 22.9%

Cc1cn([C@H]2C[C@H](N=[N+]=[N-])[C@@H](CO)O2)c(=O)[nH]c1=O [AZT]
antiviral activity of positive control compounds (HIV-1) (HIV-1IIIB): expected levels of antiviral activity
